Results on 1 compound are retold here after article PMC10981743, “Network pharmacology, computational biology integrated surface plasmon resonance technology reveals the mechanism of ellagic acid against rotavirus” (Scientific Reports, 2024).

SMILES strings stand for the structures. pKd: −log10 of the molar value.

A word on the pKd: it is the negative decadic logarithm of the Kd, by convention in mol/L.

The target of this experiment is T1, TLR4; Recombinant human TLR4 protein (Active) (Homo sapiens, UniProt O00206).
T1 construct: commercial recombinant protein (Abcam, 'Active'); immobilised on CM5 chip by amine coupling
Briefly: surface plasmon resonance (Biacore T200, TLR4 immobilised on CM5 chip). The experiment is classed as binding. The text has this:
surface plasmon resonance (Biacore T200, TLR4 immobilised on CM5 chip) on TLR4; Recombinant human TLR4 protein (Active)

T1 sequence (O00206 24-631 limits assumed): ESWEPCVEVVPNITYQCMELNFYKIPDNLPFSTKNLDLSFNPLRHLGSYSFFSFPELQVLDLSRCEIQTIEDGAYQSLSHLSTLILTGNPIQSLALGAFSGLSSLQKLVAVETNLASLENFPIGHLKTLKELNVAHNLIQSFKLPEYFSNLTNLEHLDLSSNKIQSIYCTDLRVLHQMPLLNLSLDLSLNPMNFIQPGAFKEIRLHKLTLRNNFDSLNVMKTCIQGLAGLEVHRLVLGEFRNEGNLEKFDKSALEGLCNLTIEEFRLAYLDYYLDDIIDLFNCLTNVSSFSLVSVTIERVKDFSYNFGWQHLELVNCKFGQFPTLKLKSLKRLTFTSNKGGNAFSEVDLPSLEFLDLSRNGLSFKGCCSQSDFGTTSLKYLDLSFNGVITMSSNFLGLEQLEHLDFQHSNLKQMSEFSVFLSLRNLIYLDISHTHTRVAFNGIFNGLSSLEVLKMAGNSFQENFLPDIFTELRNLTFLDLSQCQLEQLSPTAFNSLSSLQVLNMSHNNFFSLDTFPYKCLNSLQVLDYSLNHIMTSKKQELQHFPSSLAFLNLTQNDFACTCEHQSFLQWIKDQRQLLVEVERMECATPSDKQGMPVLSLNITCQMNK

With `O=c1oc2c(O)c(O)cc3c(=O)oc4c(O)c(O)cc1c4c23` [Ellagic acid], the pKd was 4.72.
